From article PMC11272598, “RG7774 (Vicasinabin), an orally bioavailable cannabinoid receptor 2 (CB2R) agonist, decreases retinal vascular permeability, leukocyte adhesion, and ocular inflammation in animal models” (Frontiers in Pharmacology, 2024)

Key:
Assay in all cases: CEREP radioligand binding
[1] = biological target: ETA (h) (Homo sapiens, UniProt P25101); details: radioligand [^125I]-endothelin-1
Excerpt: (§1) Supplement Table1.docx, table 3: Supplementary Table S3. RG7774 binding to non-CB1R/CB2R receptors, ion channels, transporters, and enzymes (CEREP, Celle l’Evescault, France; http://www.cerep.fr). | column: % inhibition of control SB (n = 2)

[2] = biological target: M4 (h) (Homo sapiens, UniProt P08173); details: radioligand [^3H]-4-DAMP
Chain of M4 (h) (P08173 whole entry): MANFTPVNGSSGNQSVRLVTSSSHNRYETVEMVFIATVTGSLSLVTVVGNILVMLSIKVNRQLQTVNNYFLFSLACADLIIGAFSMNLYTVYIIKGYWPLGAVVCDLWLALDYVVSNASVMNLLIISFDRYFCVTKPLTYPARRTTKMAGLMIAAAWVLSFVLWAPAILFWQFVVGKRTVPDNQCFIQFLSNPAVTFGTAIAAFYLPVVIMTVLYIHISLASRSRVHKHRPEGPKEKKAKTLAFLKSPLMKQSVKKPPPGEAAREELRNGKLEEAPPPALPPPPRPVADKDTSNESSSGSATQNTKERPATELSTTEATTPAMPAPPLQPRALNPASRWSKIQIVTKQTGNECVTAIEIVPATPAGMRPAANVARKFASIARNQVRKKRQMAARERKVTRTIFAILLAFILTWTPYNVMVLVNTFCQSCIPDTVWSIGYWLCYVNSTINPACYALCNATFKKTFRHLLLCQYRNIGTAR
Excerpt: as §1

[3] = test system: Alpha 2 (non-selective); details: radioligand [^3H]-RX 821002
Excerpt: as §1

[4] = biological target: 5-HT1B (h) (Homo sapiens, UniProt P28222); details: radioligand [^125I]-CYP (+ 30 μM isoproterenol)
Excerpt: as §1

[5] = biological target: M1 (h) (Homo sapiens, UniProt P11229); details: radioligand [^3H]-pirenzepine
Excerpt: as §1

[6] = test system: BZD (central); details: radioligand [^3H]-flunitrazepam
Excerpt: as §1

[7] = biological target: ETB (h) (Homo sapiens, UniProt P24530); details: radioligand [^125I]-endothelin-1
Excerpt: as §1

[8] = biological target: PAC1 (PACAP) (h) (Homo sapiens, UniProt P41586); details: radioligand [^125I]-PACAP1-27
Excerpt: as §1

[9] = biological target: EP4 (h) (Homo sapiens, UniProt P35408); details: radioligand [^3H]-PGE2
Chain of EP4 (h) (P35408 whole entry): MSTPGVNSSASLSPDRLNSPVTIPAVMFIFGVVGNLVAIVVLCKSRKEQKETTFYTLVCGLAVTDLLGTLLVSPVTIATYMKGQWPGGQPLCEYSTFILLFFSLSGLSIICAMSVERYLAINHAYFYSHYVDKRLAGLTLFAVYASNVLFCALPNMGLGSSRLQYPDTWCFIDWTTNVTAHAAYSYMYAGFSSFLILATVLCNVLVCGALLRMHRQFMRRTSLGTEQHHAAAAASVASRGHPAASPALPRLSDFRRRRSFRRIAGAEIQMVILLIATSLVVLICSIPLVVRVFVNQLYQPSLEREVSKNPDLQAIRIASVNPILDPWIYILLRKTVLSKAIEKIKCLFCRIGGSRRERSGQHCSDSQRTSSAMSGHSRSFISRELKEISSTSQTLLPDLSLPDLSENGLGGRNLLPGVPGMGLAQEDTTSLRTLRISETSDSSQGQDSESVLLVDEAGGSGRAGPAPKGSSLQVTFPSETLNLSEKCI
Excerpt: as §1

[10] = biological target: Beta 2 (h) (Homo sapiens, UniProt P07550); details: radioligand [^3H](-)CGP 12177
Chain of Beta 2 (h) (P07550 whole entry): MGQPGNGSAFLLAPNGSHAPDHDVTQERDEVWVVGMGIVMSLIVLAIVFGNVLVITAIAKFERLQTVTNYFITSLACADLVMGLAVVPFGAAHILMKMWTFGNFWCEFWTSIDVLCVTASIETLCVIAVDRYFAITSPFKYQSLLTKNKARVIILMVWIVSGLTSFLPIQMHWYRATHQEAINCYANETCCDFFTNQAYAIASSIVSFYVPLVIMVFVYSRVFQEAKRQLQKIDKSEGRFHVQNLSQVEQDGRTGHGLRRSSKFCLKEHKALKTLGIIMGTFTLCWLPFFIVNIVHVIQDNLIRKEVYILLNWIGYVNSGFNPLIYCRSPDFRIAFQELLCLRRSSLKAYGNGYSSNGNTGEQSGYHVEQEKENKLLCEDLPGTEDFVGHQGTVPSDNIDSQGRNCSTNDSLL
Excerpt: as §1

[11] = biological target: 5-HT7 (h) (Homo sapiens, UniProt P34969); details: radioligand [^3H]-LSD
Excerpt: as §1

[12] = biological target: NK1 (h) (Homo sapiens, UniProt P25103); details: radioligand [^125I]-BH-SP
Excerpt: as §1

[13] = test system: TNF-α; details: radioligand [^125I]-TNF-α
Excerpt: as §1

[14] = biological target: Dopamine transporter (h) (Homo sapiens, UniProt Q01959); details: radioligand [^3H]-BTCP
Excerpt: as §1

[15] = biological target: VPAC1 (VIP1) (h) (Homo sapiens, UniProt P32241); details: radioligand [^125I]-VIP
Chain of VPAC1 (VIP1) (h) (P32241 31-457): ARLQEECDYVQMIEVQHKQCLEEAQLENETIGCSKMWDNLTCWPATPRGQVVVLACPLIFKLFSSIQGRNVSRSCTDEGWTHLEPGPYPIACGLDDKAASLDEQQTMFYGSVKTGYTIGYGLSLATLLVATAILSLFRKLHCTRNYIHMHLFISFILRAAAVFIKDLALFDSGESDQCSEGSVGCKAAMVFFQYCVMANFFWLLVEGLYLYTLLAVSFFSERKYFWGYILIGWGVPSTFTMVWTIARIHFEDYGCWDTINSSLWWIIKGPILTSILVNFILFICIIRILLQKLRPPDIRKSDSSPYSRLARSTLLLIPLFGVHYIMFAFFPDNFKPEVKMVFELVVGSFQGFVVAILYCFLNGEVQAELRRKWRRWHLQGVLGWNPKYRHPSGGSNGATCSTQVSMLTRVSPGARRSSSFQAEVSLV
Excerpt: as §1

[16] = biological target: AT1 (h) (Homo sapiens, UniProt P30556); details: radioligand [^125I]-[Sar^1,Ile^8]-AT-II
Excerpt: as §1

[17] = test system: SKCa channel; details: radioligand [^125I]-apamin
Excerpt: as §1

[18] = biological target: 5-HT transporter (h) (Homo sapiens, UniProt P31645); details: radioligand [^3H]-imipramine
Chain of 5-HT transporter (h) (P31645 whole entry): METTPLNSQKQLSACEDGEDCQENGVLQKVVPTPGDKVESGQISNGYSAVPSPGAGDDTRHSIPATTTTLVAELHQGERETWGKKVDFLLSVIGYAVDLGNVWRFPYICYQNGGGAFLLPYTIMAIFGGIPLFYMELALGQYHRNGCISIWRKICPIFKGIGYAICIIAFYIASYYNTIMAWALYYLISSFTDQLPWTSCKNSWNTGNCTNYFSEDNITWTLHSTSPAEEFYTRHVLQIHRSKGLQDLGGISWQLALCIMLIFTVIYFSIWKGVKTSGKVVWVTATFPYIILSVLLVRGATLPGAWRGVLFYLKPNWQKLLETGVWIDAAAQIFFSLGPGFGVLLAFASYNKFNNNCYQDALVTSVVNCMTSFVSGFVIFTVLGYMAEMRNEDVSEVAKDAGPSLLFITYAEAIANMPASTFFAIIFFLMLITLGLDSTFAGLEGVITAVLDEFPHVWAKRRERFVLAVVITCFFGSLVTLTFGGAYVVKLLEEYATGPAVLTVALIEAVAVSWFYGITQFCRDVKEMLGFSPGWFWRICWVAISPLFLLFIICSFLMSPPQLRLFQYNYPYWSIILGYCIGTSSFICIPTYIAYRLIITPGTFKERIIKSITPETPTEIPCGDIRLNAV
Excerpt: as §1

[19] = biological target: μ(MOP) (h) (Homo sapiens, UniProt P35372); details: radioligand [^3H]-DAMGO
Excerpt: as §1

[20] = test system: Ca2+ channel (L, verapamil site) (phenylalkylamine); details: radioligand [^3H]-D888
Excerpt: as §1

[21] = biological target: M2 (h) (Homo sapiens, UniProt P08172); details: radioligand [^3H]-AF-DX 384
Excerpt: as §1

[22] = biological target: A1 (h) (Homo sapiens, UniProt P30542); details: radioligand [^3H]-DPCPX
Excerpt: as §1

[23] = biological target: GAL1 (Homo sapiens, UniProt P47211); details: radioligand [^125I]-galanin
Excerpt: as §1

[24] = biological target: MC4 (h) (Homo sapiens, UniProt P32245); details: radioligand [^125I]-NDP-α-MSH
Chain of MC4 (h) (P32245 whole entry): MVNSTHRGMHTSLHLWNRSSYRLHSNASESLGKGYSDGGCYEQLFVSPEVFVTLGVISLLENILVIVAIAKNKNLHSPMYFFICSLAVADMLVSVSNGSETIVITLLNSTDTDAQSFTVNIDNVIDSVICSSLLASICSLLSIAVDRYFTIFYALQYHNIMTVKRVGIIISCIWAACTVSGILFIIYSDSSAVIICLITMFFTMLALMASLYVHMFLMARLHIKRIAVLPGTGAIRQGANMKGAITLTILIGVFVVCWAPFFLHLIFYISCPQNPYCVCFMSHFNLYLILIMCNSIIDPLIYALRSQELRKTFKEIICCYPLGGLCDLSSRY
Excerpt: as §1

[25] = test system: P2Y; details: radioligand [^35S]-dATPαS
Excerpt: as §1

[26] = biological target: Beta 1 (h) (Homo sapiens, UniProt P08588); details: radioligand [^3H](-)CGP 12177
Excerpt: as §1

[27] = biological target: MT1 (ML1A) (h) (Homo sapiens, UniProt P48039); details: radioligand [^125I]-2-iodomelatonin
Excerpt: as §1

[28] = biological target: 5-HT2B (h) (Homo sapiens, UniProt P41595); details: radioligand [^125I](±)DOI
Chain of 5-HT2B (h) (P41595 whole entry): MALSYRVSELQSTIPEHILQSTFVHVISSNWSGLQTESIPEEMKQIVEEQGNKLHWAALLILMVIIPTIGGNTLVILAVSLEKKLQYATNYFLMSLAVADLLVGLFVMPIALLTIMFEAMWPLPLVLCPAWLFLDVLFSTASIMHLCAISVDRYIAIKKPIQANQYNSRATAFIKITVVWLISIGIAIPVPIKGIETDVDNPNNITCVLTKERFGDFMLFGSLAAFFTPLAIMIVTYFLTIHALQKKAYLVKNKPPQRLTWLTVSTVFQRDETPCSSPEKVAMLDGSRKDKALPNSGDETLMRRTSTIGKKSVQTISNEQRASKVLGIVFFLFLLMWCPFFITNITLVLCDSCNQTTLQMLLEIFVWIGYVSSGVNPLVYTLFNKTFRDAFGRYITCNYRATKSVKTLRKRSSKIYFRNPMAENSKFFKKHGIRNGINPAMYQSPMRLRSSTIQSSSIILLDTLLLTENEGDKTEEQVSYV
Excerpt: as §1

[29] = biological target: M5 (h) (Homo sapiens, UniProt P08912); details: radioligand [^3H]-4-DAMP
Chain of M5 (h) (P08912 whole entry): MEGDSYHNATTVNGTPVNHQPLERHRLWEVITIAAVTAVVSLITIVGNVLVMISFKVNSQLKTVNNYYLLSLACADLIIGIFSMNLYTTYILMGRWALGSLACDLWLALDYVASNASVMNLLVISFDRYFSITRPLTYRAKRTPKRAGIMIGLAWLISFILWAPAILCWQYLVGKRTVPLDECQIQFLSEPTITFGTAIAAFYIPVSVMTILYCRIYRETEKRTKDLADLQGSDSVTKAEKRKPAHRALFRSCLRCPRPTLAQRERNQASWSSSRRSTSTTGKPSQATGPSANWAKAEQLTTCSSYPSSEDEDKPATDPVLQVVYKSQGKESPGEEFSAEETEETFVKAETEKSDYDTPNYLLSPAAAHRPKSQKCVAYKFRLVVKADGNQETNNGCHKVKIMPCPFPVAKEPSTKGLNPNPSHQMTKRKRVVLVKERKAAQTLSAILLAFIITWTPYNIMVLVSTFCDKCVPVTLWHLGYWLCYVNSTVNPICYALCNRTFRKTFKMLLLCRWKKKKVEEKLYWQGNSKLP
Excerpt: as §1

[30] = biological target: AT2 (h) (Homo sapiens, UniProt P50052); details: radioligand [^125I]-CGP 42112A
Chain of AT2 (h) (P50052 whole entry): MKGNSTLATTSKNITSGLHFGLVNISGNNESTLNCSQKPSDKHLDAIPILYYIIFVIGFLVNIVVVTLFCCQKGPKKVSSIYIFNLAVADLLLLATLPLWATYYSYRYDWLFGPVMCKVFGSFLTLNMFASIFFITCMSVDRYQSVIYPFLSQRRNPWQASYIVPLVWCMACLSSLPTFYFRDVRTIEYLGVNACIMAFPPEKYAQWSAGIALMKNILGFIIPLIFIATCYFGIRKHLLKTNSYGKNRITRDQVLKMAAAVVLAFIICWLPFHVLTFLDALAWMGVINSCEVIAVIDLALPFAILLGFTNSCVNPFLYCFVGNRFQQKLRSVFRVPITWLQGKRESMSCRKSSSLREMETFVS
Excerpt: as §1

[31] = biological target: CGRP (h) (Homo sapiens, UniProt O60894+Q16602); details: radioligand [^125I]-hCGRPα
Excerpt: as §1

[32] = biological target: V1a (h) (Homo sapiens, UniProt P37288); details: radioligand [^3H]-AVP
Chain of V1a (h) (P37288 whole entry): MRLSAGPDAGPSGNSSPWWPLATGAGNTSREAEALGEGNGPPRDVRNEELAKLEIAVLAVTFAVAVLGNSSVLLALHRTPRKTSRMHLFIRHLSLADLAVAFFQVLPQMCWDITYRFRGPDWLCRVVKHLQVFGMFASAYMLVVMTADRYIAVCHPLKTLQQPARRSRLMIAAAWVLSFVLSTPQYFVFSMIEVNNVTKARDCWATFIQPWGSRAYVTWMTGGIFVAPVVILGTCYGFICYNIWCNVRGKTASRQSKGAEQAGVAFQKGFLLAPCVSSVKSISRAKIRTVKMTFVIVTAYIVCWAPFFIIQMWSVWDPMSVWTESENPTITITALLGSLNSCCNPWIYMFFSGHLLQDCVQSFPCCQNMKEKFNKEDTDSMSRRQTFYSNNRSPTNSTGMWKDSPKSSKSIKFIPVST
Excerpt: as §1

[33] = biological target: D4.4 (h) (Homo sapiens, UniProt P21917); details: radioligand [^3H]-methyl-spiperone
Excerpt: as §1

[34] = biological target: EP2 (h) (Homo sapiens, UniProt P43116); details: radioligand [^3H]-PGE2
Excerpt: as §1

[35] = test system: BB (non-selective); details: radioligand [^125I]-[Tyr^4]bombesin
Excerpt: as §1

[36] = biological target: IP (PGI2) (h) (Homo sapiens, UniProt P43119); details: radioligand [^3H]-iloprost
Chain of IP (PGI2) (h) (P43119 whole entry): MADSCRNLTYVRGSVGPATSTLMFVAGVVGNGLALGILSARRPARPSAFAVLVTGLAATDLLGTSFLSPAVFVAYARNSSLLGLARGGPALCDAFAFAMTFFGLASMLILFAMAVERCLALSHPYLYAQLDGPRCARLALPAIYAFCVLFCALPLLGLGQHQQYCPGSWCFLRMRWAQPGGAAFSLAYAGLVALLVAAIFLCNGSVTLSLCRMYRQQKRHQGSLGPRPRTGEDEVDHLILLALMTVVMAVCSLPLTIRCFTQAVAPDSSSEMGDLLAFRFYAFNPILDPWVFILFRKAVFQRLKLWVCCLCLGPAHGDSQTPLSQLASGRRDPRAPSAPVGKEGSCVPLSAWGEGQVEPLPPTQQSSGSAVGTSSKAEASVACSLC
Excerpt: as §1

[37] = biological target: κ(KOP) (Rattus norvegicus, UniProt P34975); details: radioligand [^3H]-U 69593
Excerpt: as §1

Cn1nnnc1Cn1nnc2c(N3CC[C@H](O)C3)nc(C(C)(C)C)nc21 [RG7774, (S)-1-(5-tert-butyl-3-[(1-methyl-1H-tetrazol-5-yl)methyl]-3H-[1,2,3]triazolo[4,5-d]pyrimidin-7-yl)pyrrolidin-3-ol]
% inhibition of control SB (n = 2) [1]: –10.4%
% inhibition of control SB (n = 2) [2]: –8.9%
% inhibition of control SB (n = 2) [3]: –20.9%
% inhibition of control SB (n = 2) [4]: –10.6%
% inhibition of control SB (n = 2) [5]: –15.6%
% inhibition of control SB (n = 2) [6]: –0.7%
% inhibition of control SB (n = 2) [7]: –8.1%
% inhibition of control SB (n = 2) [8]: –1.3%
% inhibition of control SB (n = 2) [9]: –8.7%
% inhibition of control SB (n = 2) [10]: –1.3%
% inhibition of control SB (n = 2) [11]: 3.9%
% inhibition of control SB (n = 2) [12]: –3.7%
% inhibition of control SB (n = 2) [13]: 4.9%
% inhibition of control SB (n = 2) [14]: 4.9%
% inhibition of control SB (n = 2) [15]: 7.8%
% inhibition of control SB (n = 2) [16]: –5.6%
% inhibition of control SB (n = 2) [17]: 8.6%
% inhibition of control SB (n = 2) [18]: 22.2%
% inhibition of control SB (n = 2) [19]: –2.5%
% inhibition of control SB (n = 2) [20]: 3.0%
% inhibition of control SB (n = 2) [21]: –8.7%
% inhibition of control SB (n = 2) [22]: 3.6%
% inhibition of control SB (n = 2) [23]: –9.1%
% inhibition of control SB (n = 2) [24]: –14.5%
% inhibition of control SB (n = 2) [25]: 2.3%
% inhibition of control SB (n = 2) [26]: –3.1%
% inhibition of control SB (n = 2) [27]: 7.9%
% inhibition of control SB (n = 2) [28]: –24.1%
% inhibition of control SB (n = 2) [29]: –2.7%
% inhibition of control SB (n = 2) [30]: 3.1%
% inhibition of control SB (n = 2) [31]: 1.7%
% inhibition of control SB (n = 2) [32]: 7.5%
% inhibition of control SB (n = 2) [33]: 3.7%
% inhibition of control SB (n = 2) [34]: –13.4%
% inhibition of control SB (n = 2) [35]: –9.5%
% inhibition of control SB (n = 2) [36]: –3.8%
% inhibition of control SB (n = 2) [37]: –12.7%
